What all share (type): cell-based
Series [1] can be described thus: Cytotoxic activity by flow cytometry with 7-AAD staining, HEK293. The following applies: human.
The test system of a further series is U937 neoplastic cells. The series is described as follows: Cytotoxic activity by flow cytometry with 7-AAD staining, U937. The following applies: Homo sapiens, U-937, 24 h, read-out: Cytotoxic activity IC50, U937.
The subject of a further series is K562 neoplastic cells. The series is described as follows: Cytotoxic activity by flow cytometry with 7-AAD staining, K562. The following applies: Homo sapiens, K562, 24 h, read-out: Cytotoxic activity IC50, K562.
Another series has as its system Jurkat neoplastic cells. The series is described as follows: Cytotoxic activity by flow cytometry with 7-AAD staining, Jurkat. As to conditions: Homo sapiens, 24 h, read-out: Cytotoxic activity IC50, Jurkat.

SMILES strings stand for the structures.

In series [1], `Cc1n[nH]c(C)c1CSc1ccccc1` [Compound 4a, 3,5-Dimethyl-4-[(phenylsulfanyl)methyl]-1H-pyrazole] came in with an IC50 at 24 h of 3800 ± 30 nM. Also, the IC50 amounted to 2940 ± 30 nM with U937 neoplastic cells, 2890 ± 30 nM in the series on K562 neoplastic cells and 2470 ± 30 nM in the series on Jurkat neoplastic cells.

For the molecule `Cc1n[nH]c(C)c1CSCc1ccccc1` [Compound 4b, 4-[(Benzylsulfanyl)methyl]-3,5-dimethyl-1H-pyrazole], the IC50 at 24 h in series [1] turned out to be 2980 ± 60 nM. Moreover, the IC50 in the series with U937 neoplastic cells was determined as 2150 ± 60 nM; with K562 neoplastic cells, 1980 ± 60 nM; with Jurkat neoplastic cells, 1240 ± 50 nM.

Molecule `Cc1n[nH]c(C)c1CSC1CCCCC1` [Compound 4c, 4-[(Cyclohexylsulfanyl)methyl]-3,5-dimethyl-1H-pyrazole] returned an IC50 at 24 h in series [1] of 3150 ± 50 nM. Further, the IC50 amounted to 1980 ± 70 nM in the series on U937 neoplastic cells, 2160 ± 60 nM with K562 neoplastic cells and 1490 ± 60 nM in the series on Jurkat neoplastic cells.

As for `Cc1n[nH]c(C)c1CSc1ccc(O)cc1` [Compound 4d, 4-{[(3,5-Dimethyl-1H-pyrazol-4-yl)methyl]sulfanyl}-phenol], the IC50 at 24 h in series [1] amounted to 3340 ± 80 nM. Besides, the IC50 in the series on U937 neoplastic cells was 2270 ± 20 nM; in the series with K562 neoplastic cells, 2340 ± 10 nM; with Jurkat neoplastic cells, 1890 ± 20 nM.

The values above are taken from article PMC9052211 (RSC Advances, 2020).
